Measured values from patent US20220195066A1, “ANTI-CEA IMMUNOCONJUGATES, AND USES THEREOF” (BOLT BIOTHERAPEUTICS, INC., priority 2020, published 2022).
pEC50: −log10 of the molar value. Blank lines part the entries; values can stand above or below the compound they belong to.

Columns and labels:
[1] = biological target: T1, human TLR8 (Homo sapiens, UniProt Q9NR97); experiment: HEK Reporter Assay, HEK293 NFKB reporter cells expressing human TLR8; type: cell-based; conditions: read-out: HEK293 hTLR8 EC50
T1 construct: host or cells: HEK293 NF-kB reporter cells
T1 sequence (Q9NR97 27-1041): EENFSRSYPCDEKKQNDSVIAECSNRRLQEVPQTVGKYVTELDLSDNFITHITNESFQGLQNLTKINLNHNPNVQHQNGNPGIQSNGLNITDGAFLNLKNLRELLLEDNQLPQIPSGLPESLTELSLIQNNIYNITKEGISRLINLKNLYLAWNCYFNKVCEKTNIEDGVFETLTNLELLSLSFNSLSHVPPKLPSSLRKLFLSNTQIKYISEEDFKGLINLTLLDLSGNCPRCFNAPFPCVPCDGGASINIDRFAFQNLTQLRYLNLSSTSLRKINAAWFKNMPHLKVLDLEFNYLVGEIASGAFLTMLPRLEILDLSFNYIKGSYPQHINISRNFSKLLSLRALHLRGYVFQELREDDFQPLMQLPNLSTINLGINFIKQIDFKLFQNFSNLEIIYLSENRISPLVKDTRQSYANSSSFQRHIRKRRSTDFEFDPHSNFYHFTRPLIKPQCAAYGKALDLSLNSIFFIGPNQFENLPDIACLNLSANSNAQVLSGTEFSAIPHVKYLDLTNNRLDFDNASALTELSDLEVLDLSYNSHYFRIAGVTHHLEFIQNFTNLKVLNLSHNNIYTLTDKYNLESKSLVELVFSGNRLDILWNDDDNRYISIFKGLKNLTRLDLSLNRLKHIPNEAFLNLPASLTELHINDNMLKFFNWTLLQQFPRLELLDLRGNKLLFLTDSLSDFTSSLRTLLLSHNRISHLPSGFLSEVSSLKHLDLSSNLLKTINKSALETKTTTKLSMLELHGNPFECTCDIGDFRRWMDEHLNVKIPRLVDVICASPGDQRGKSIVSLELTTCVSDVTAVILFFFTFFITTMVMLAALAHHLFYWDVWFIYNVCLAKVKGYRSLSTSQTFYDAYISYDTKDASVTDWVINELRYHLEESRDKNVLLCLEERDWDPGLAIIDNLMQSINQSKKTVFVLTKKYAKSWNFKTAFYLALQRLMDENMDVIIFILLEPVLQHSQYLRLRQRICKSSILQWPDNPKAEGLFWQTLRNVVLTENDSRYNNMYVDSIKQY
Experimental: (§1) Each compound was synthesized, purified, and characterized by mass spectrometry and shown to have the mass indicated. Additional experimental procedures are found in the Examples. Activity against Human Embryonic Kidney (HEK) 293 NFKB reporter cells expressing human TLR7 or human TLR8 was measured according to Example 202.
(§2) Human Embryonic Kidney (HEK293) reporter cells expressing human TLR7 or human TLR8 (InvivoGen, San Diego Calif.), were used with vendor protocols for cellular propagation and experimentation. Briefly, cells were grown to 80-85% confluence at 5% CO2 in DMEM supplemented with 10% FBS, ZEOCIN™, and Blasticidin. Cells were then seeded in 96-well flat plates at 4×10^4 cells/well with substrate containing HEK detection medium and immunostimulatory molecules.

[2] = biological target: T2, human TLR7 (Homo sapiens, UniProt Q9NYK1); experiment: HEK Reporter Assay, HEK293 NFKB reporter cells expressing human TLR7; type: cell-based; conditions: read-out: HEK293 hTLR7 EC50
T2 construct: host or cells: HEK293 NF-kB reporter cells
T2 sequence (Q9NYK1 27-1049): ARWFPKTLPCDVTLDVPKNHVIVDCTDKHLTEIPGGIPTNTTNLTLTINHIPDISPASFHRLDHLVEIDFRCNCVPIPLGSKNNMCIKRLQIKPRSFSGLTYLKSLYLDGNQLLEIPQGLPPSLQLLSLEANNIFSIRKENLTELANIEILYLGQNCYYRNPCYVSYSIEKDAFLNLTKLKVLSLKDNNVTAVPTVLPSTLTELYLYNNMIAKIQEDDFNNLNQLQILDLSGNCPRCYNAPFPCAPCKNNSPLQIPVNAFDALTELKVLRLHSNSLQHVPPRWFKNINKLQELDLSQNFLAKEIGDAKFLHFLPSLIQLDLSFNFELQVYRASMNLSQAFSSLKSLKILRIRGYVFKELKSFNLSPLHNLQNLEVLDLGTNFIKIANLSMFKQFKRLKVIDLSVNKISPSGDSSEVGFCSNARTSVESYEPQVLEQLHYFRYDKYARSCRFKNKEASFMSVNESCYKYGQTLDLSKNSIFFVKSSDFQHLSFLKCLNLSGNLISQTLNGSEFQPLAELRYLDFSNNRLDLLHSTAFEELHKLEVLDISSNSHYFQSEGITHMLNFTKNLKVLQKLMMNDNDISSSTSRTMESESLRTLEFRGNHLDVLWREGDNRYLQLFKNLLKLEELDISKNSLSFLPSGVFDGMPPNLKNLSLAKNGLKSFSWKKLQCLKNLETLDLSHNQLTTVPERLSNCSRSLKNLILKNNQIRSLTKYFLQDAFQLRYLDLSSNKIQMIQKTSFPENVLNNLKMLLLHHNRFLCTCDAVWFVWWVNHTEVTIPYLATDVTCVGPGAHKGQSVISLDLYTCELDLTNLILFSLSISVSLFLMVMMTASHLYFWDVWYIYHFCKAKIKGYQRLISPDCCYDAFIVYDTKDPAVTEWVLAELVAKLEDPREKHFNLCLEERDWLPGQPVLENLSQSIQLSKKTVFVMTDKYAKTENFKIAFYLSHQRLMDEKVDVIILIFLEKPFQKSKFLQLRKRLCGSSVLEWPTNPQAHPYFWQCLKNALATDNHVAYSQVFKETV
Experimental: as §1, §2

Compound: CCCN(OCC)C(=O)C1=Cc2ccc(-c3cnc(C#N)nc3)cc2N=C(N)C1 [HxBz-1]
pEC50 [1]: 6.79 | pEC50 [2]: 5.60

Compound: CCCN(OCC)C(=O)C1=Cc2ccc(-c3cccnn3)cc2N=C(N)C1 [HxBz-2]
pEC50 [1]: 6.56 | pEC50 [2]: 5.65

Compound: CCCN(OCC)C(=O)C1=Cc2ccc(-c3cnc(N4CCNCC4)nc3)cc2N=C(N)C1 [HxBz-3, 2-amino-N-ethoxy-8-(2-piperazin-1-ylpyrimidin-5-yl)-N-propyl-3H-1-benzazepine-4-carboxamide]
pEC50 [1]: 7.37 | pEC50 [2]: 6.25

Compound: CCCN(OCC)C(=O)C1=Cc2ccc(-c3cnc(N4CCN(C(=O)OC(C)(C)C)CC4)nc3)cc2N=C(N)C1 [HxBz-4, tert-butyl 4-[5-[2-amino-4-[ethoxy (propyl)carbamoyl]-3H-1-benzazepin-8-yl]pyrimidin-2-yl]piperazine-1-carboxylate]
pEC50 [1]: 6.46 | pEC50 [2]: 5.49

Compound: CCCN(OCC)C(=O)C1=Cc2ccc(-c3ccc(C(=O)OC)nn3)cc2N=C(N)C1 [HxBz-6]
pEC50 [1]: 6.47 | pEC50 [2]: 5.58

Compound: CCCN(OCC)C(=O)C1=Cc2ccc(-c3cncc(S(=O)(=O)N4CC(CN)C4)c3)cc2N=C(N)C1 [HxBz-7, 2-amino-8-[5-[3-(aminomethyl)azetidin-1-yl]sulfonyl-3-pyridyl]-N-ethoxy-N-propyl-3H-1-benzazepine-4-carboxamide]
pEC50 [1]: 6.47 | pEC50 [2]: 5.44

Compound: CCCN(OCC)C(=O)C1=Cc2ccc(-c3cnn(S(=O)(=O)N4CC(CN)C4)c3)cc2N=C(N)C1 [HxBz-9]
pEC50 [1]: 6.40 | pEC50 [2]: 5.06

Compound: CCCN(OCC)C(=O)C1=Cc2ccc(-c3ncc(CN)cn3)cc2N=C(N)C1 [HxBz-10]
pEC50 [1]: 6.09

Compound: CCCN(OCC)C(=O)C1=Cc2ccc(-c3cnc(C(=O)OC)nc3)cc2N=C(N)C1 [HxBz-11, methyl 5-(2-amino-4-(ethoxy(propyl)carbamoyl)-3H-benzo[b]azepin-8-yl)pyrimidine-2-carboxylate]
pEC50 [1]: 6.79 | pEC50 [2]: 5.39

Compound: CCCN(OCC)C(=O)C1=Cc2ccc(-c3cnc(C(=O)N4CCC[C@H]4C(=O)OC)nc3)cc2N=C(N)C1 [HxBz-12]
pEC50 [1]: 8.22 | pEC50 [2]: 6.80

Compound: CCCN(OCC)C(=O)C1=Cc2ccc(N3CCNCC3)cc2N=C(N)C1 [HxBz-18]
pEC50 [1]: 6.55 | pEC50 [2]: 5.20

Compound: CCCN(OCCNC(=O)OC1CCC1)C(=O)C1=Cc2ccc(-c3cncc(S(=O)(=O)N4CC(CN)C4)c3)cc2N=C(N)C1 [HxBz-34]
pEC50 [1]: 7.10 | pEC50 [2]: 6.49

Compound: CCCN(OCCO)C(=O)C1=Cc2ccc(-c3cncc(S(=O)(=O)N4CC(CN)C4)c3)cc2N=C(N)C1 [HxBz-43]
pEC50 [1]: 5.21

Compound: CCCN(OCC)C(=O)C1=Cc2ccc(-c3cnnc(CN)c3)cc2N=C(N)C1 [HxBz-48]
pEC50 [1]: 5.66

More lines, now with the values ahead:

pEC50 [1]: 7.77 | pEC50 [2]: 6.28
Compound: CCCN(OCC)C(=O)C1=Cc2ccc(-c3cnc(CN)nc3)cc2N=C(N)C1 [HxBz-5, 2-amino-8-[2-(aminomethyl)pyrimidin-5-yl]-N-ethoxy-N-propyl-3H-1-benzazepine-4-carboxamide]

pEC50 [1]: 6.56 | pEC50 [2]: 6.62
Compound: CCCN(CCCNC(=O)OC1CCC1)C(=O)C1=Cc2ccc(-c3cnc(CN)nc3)cc2N=C(N)C1 [HxBz-13, cyclobutyl N-[3-[[2-amino-8-[2-(aminomethyl)pyrimidin-5-yl]-3H-1-benzazepine-4-carbonyl]-propyl-amino]propyl]carbamate]

pEC50 [1]: 8.00 | pEC50 [2]: 7.46
Compound: CCCN(OCCNC(=O)OC1CCC1)C(=O)C1=Cc2ccc(-c3cnc(CN)nc3)cc2N=C(N)C1 [HxBz-15, cyclobutyl N-[2-[[2-amino-8-[2-(aminomethyl)pyrimidin-5-yl]-3H-1-benzazepine-4-carbonyl]-propyl-amino]oxyethyl]carbamate]

pEC50 [1]: 6.40 | pEC50 [2]: 5.34
Compound: CCCN(OCCNC(=O)NC1CCC1)C(=O)C1=Cc2ccc(-c3cnc(CN)nc3)cc2N=C(N)C1 [HxBz-16, 2-amino-8-[2-(aminomethyl)pyrimidin-5-yl]-N-[2-(cyclobutylcarbamoylamino)ethoxy]-N-propyl-3H-1-benzazepine-4-carboxamide]

pEC50 [1]: 5.43 | pEC50 [2]: 5.53
Compound: CCCN(OCCNC(=O)N(C)C)C(=O)C1=Cc2ccc(-c3cnc(CN)nc3)cc2N=C(N)C1 [HxBz-20]

pEC50 [1]: 5.94 | pEC50 [2]: 5.41
Compound: CCCN(OCCO)C(=O)C1=Cc2ccc(-c3cnc(CN)nc3)cc2N=C(N)C1 [HxBz-22, 2-amino-8-[2-(aminomethyl)pyrimidin-5-yl]-N-(2-hydroxyethoxy)-N-propyl-3H-1-benzazepine-4-carboxamide]

pEC50 [1]: 5.21 | pEC50 [2]: 5.16
Compound: CCCN(OCCNC(=O)N1CCOCC1)C(=O)C1=Cc2ccc(-c3cnc(CN)nc3)cc2N=C(N)C1 [HxBz-23]

pEC50 [1]: 5.50
Compound: CCCN(CC1CNC(=O)O1)C(=O)C1=Cc2ccc(-c3cnc(CN)nc3)cc2N=C(N)C1 (centres unmarked) [HxBz-25]

pEC50 [1]: 8.05 | pEC50 [2]: 7.59
Compound: CCCN(OCCNC(=O)OC(C)C)C(=O)C1=Cc2ccc(-c3cnc(CN)nc3)cc2N=C(N)C1 [HxBz-27, isopropyl N-[2-[[2-amino-8-[2-(aminomethyl)pyrimidin-5-yl]-3H-1-benzazepine-4-carbonyl]-propyl-amino]oxyethyl]carbamate]

pEC50 [1]: 5.53 | pEC50 [2]: 5.42
Compound: CCCN(OCCNC(=O)NCC)C(=O)C1=Cc2ccc(-c3cnc(CN)nc3)cc2N=C(N)C1 [HxBz-28]

pEC50 [1]: 6.53 | pEC50 [2]: 6.87
Compound: CCCN(CCCNC(=O)OC(C)C)C(=O)C1=Cc2ccc(-c3cnc(CN)nc3)cc2N=C(N)C1 [HxBz-29]

pEC50 [1]: 7.40 | pEC50 [2]: 6.41
Compound: CCCN(OC(C)C)C(=O)C1=Cc2ccc(-c3cnc(CN)nc3)cc2N=C(N)C1 [HxBz-30]

pEC50 [1]: 6.45 | pEC50 [2]: 6.12
Compound: CCCN(OCC(C)C)C(=O)C1=Cc2ccc(-c3cnc(CN)nc3)cc2N=C(N)C1 [HxBz-31]

pEC50 [1]: 5.82 | pEC50 [2]: 5.89
Compound: CCCN(CCCNC(=O)OC1CCC1)C(=O)C1=Cc2ccc(-c3cncc(S(=O)(=O)N4CC(CN)C4)c3)cc2N=C(N)C1 [HxBz-32, cyclobutyl N-[3-[[2-amino-8-[5-[3-(aminomethyl)azetidin-1-yl]sulfonyl-3-pyridyl]-3H-1-benzazepine-4-carbonyl]-propyl-amino]propyl]carbamate]

pEC50 [1]: 5.54 | pEC50 [2]: 5.12
Compound: CCCN(CCCNC(=O)OC(C)C)C(=O)C1=Cc2ccc(-c3cncc(S(=O)(=O)N4CC(CN)C4)c3)cc2N=C(N)C1 [HxBz-33]

pEC50 [1]: 5.20
Compound: CCCN(C(=O)C1=Cc2ccc(-c3cnc(CN)nc3)cc2N=C(N)C1)[C@H]1C[C@H](NC(=O)OC2CCC2)C1 [HxBz-44]

pEC50 [1]: 5.45
Compound: CCCN(OCC1COC(=O)N1)C(=O)C1=Cc2ccc(-c3cnc(CN)nc3)cc2N=C(N)C1 (centres unmarked) [HxBz-46]
